Data reported in patent publication US10624948B2, “Use of cell-permeable peptide inhibitors of the JNK signal transduction pathway for the treatment of various diseases” (Xigen Inflammation Ltd., priority 2013, dated 2020).
Like-named read-outs stand apart in the source and are kept apart here.

Legend:
[1] = Phase I pharmacokinetics, single intravenous infusion; conditions: human, in vivo
Method: The primary objective of the study was to assess the safety and tolerability of XG-102 following intravenous (iv) infusion of single escalating doses of XG-102 to healthy male volunteers. The secondary objective of the study was to assess the pharmacokinetics of XG-102 following iv infusion of single escalating doses of XG-102 to healthy male volunteers. Doses were administered as a 60 minute iv infusion. For control purposes, placebo iv infusion was administered to control subjects. This was a single-centre, randomized, double blind, placebo controlled, ascending single dose, sequential group study. […] Screening was performed in the 3-week period prior to dosing. Dosing occurred on Day 0 for each subject. […] Data for all subjects were included in the safety analyses; data for all subjects who received XG-102 were included in the pharmacokinetic analyses.

[2] = tested on: Brown Norway rats, STZ-induced diabetic retinopathy; assay: Diabetic retinopathy prevention study in STZ treated rat (IVT); format: in vivo
Method: The objective of this study was to determine the ability of XG-102 to prevent diabetic retinopathy when administered by intravitreal injections to streptozotocin (STZ)-treated (hyperglycemic) rats.
All animals from Groups 2, 3, 4 received a 55 mg/kg intravenous (IV) dose of STZ on Day −7.
Test items or reference item were administered by intravitreal injection to the left and right eyes of each animal on Days 1, 8 and 15 as indicated in the Experimental Design table. The animals were anesthetized (isoflurane) for the dose administration, which was performed by a board-certified veterinary ophthalmologist. Topical antibiotics (gentamicin ophthalmic solution) were applied to both eyes twice on the day before treatment, following the injection and at least once on the day following the injection. Prior to dosing, mydriatic drops (1% tropicamide and/or 2.5% phenylephrine) were applied to each eye (further applications were performed when considered appropriate by the veterinary ophthalmologist). During dosing, animals were maintained under anesthesia with isoflurane/oxygen gas. The conjunctivae were flushed with 0.9% Sodium Chloride for Injection USP. A 10 μl Hamilton syringe with 32-gauge, ½-inch needle was used for each intravitreal injection (one syringe/group/treatment). The dose volume was 5 μL/eye. Both eyes were examined by slit-lamp biomicroscopy and/or indirect ophthalmoscopy immediately following each treatment to document any abnormalities (especially to the lens, vitreous and retina) caused by the administration procedure. […]
The in-life procedures, observations, and measurements listed below were performed for study animals. […] Food consumption was quantitatively measured weekly starting during the last week of the pretreatment period. […] Intraocular pressure was measured following each ophthalmology examination, once prestudy and on Day 22, using a TonoVet™ rebound tonometer. The pre-treatment tonometry readings were performed at the same times as anticipated for the final measurements to reduce diurnal variability. […]

[3] = tested on: Sprague-Dawley albino rats, light-induced photoreceptor cell death; format: in vivo
Method: The aim of this study was to investigate the dose effect of XG-102 on light-induced photoreceptor cell death.
Test item (XG-102: 30 mg/ml, 3 mg/ml, and 0.3 mg/ml) and vehicle (0.9% NaCl) were administered by intravitreal injection in right eyes the day before induction. The reference (Phenyl-N-test-Butylnitrone (PBN) (50 mg/kg)) and vehicle were intraperitoneally injected 30 min before induction then, 3 times during 12 hours of light exposition, then once after induction. Animals were placed in constant light (7000 lux) for 24 h. Electroretinograms (ERG) were recorded before light treatment and on days 9, 16 and 23 after induction. Eyes were then taken for histology and outer nuclear layer (ONL) thickness assessment. The table below summarizes the allocation of animals in treatment groups:
For the intravitreal injection animals were anesthetized by intramuscular injection of a mixture of xylazine/ketamine. Test item (5 μl) and vehicle (5 μl) were injected in the right eye. The injection was performed under an operating microscope in the supratemporal area at pars plana using a 33G-needle mounted on a 50 μl Hamilton. The filled syringe was mounted into the UltraMicroPump III to achieve accurate injection in microliter range. Reference and vehicle were injected intraperitoneally at a dose volume of 2.5 ml/kg using a 30G-needle mounted on a 1 ml-syringe.
Light Exposure: The rats that had been dark-adapted overnight were exposed for 24 hours to a continuous white fluorescent light (7000 lx) in clear plastic cages. Each cage contained one rat. After exposure, the rats returned to rearing cyclic light conditions.
ERG was recorded before induction and 7, 14 and 21 days after cessation of exposure (Days 9, 16 and 23) on right eyes of dark-adapted and anesthezied animals. The latency times (for a- and b-wave) and the a-wave and b-wave amplitudes were measured for each ERG; the latency times were expressed as millisecond and the a-wave and b-wave as a percentage of the baseline value obtained before light exposure. 15 min before measurement 10 μl Mydriaticum® (0.5% tropicamide) were instilled for pupillary dilatation.
Measurement of the ONL Thickness: After ERG testing, animal was euthanized by an overdose of pentobarbital and the right eyes were enucleated, fixed and embedded in paraffin. Sections (5 μm thick) were performed along the vertical meridian and stained with Trichrome-Masson. The vertical meridian included the optic nerve.

db/db mice = conditions: mouse, in vivo, sc, 10 mg/kg
Excerpt: i) Animals • A total of twenty (20) male db/db mice (8 weeks old) were obtained from Charles River (Germany). Upon arrival, animals were group housed (n=6-7/group) and offered regular rodent chow (Altromin standard #1324 chow; C. Petersen, Ringsted, Denmark) and water ad libitum unless otherwise stated. The mice were housed under a 12:12 L/D cycle (lights on at 4:00 and lights off at 16:00) and in temperature and humidity controlled rooms.
ii) Groups and Randomization • On day −4, mice were randomized according to blood glucose level (fasted; blood glucose measured on Biosen S line analyzer (EKF diagnostic, Germany) to participate in one of the following drug treatment groups (n=6): • 1) Vehicle control, S.C. (physiological saline) • 2) XG-102 (SEQ ID NO: 11); 1 mg/kg; s.c. • 3) XG-102 (SEQ ID NO: 11); 10 mg/kg; s.c • All doses listed were calculated for the free-base. […] All compounds were administered sub-cutaneously (s.c.) in a volume of 3 ml/kg. The formulation instructions for vehicle control and XG-102 (SEQ ID NO: 11) were as follows: • First, XG-102 (SEQ ID NO: 11) was dissolved in the vehicle. […]
i) Blood Glucose • Blood glucose was measured from 7 hour fasted animals 6 hours post dosing by collection of 10 μl blood samples from the tail-vein in hematocrite tubes and subsequent analysis on a Biosen s-line analyzer (EKE-diagnostic; Germany).

SMILES: CC(C)C[C@@H](NC(=O)[C@@H](Cc1ccccc1)NC(=O)[C@H]1CCCN1C(=O)[C@@H](CCC(N)=O)NC(=O)[C@H](NC(=O)[C@H]1CCCN1C(=O)[C@@H](CCCNC(=N)N)NC(=O)[C@@H](CO)NC(=O)[C@@H](CCC(N)=O)NC(=O)[C@H](N)CC(=O)O)C(C)C)C(=O)N[C@H](CC(N)=O)C(=O)N[C@H](CC(C)C)C(=O)N[C@@H](C(=O)N[C@@H](C(=O)N1CCC[C@@H]1C(=O)N[C@H](CCCNC(=N)N)C(=O)N[C@H](CCCCN)C(=O)N1CCC[C@@H]1C(=O)N[C@H](CCCNC(=N)N)C(=O)N1CCC[C@@H]1C(=O)N1CCC[C@@H]1C(=O)N[C@H](CCCNC(=N)N)C(=O)N[C@H](CCCNC(=N)N)C(=O)N[C@H](CCCNC(=N)N)C(=O)N[C@H](CCC(N)=O)C(=O)N[C@H](CCCNC(=N)N)C(=O)N[C@H](CCCNC(=N)N)C(=O)N[C@H](CCCCN)C(=O)N[C@H](CCCCN)C(=O)N[C@H](CCCNC(=N)N)C(=O)NCC(=O)O)[C@H](C)O)[C@H](C)O [XG-102]
- AUCextrap ([1]; 10 ug/kg): 34.1%
- AUCextrap ([1]; 40 ug/kg): 6.7%
- AUCextrap ([1]; 80 ug/kg): 2.9%
- mortality ([2]; IVT Days 1, 8, 15): no XG-102-related deaths
- ERG wave amplitude, overall ([2]; rat, in vivo): tendency for XG-102 to reverse the decrease of the wave amplitude
- ERG latencies ([2]; ≤2 μg/eye): comparable and remained within the control and/or pretreatment variation
- ERG A-wave amplitude, percent of the baseline, Mean ± SD ([3]; XG-102 ivt 15 μg/eye, Day 23): 41.8 ± 23.6%
- ERG B-wave amplitude, percent of the baseline, Mean ± SD ([3]; XG-102 ivt 15 μg/eye, Day 23): 56.5 ± 29.8%
- ERG A-wave amplitude, percent of the baseline, Mean ± SD ([3]; XG-102 ivt 150 μg/eye, Day 9): 23.6 ± 25.3%
- ERG B-wave amplitude, percent of the baseline, Mean ± SD ([3]; XG-102 ivt 150 μg/eye, Day 9): 31.9 ± 42.6%
- ERG A-wave amplitude, percent of the baseline, Mean ± SD ([3]; XG-102 ivt 150 μg/eye, Day 16): 24.1 ± 28.1%
- ERG B-wave amplitude, percent of the baseline, Mean ± SD ([3]; XG-102 ivt 150 μg/eye, Day 16): 38.9 ± 51.5%
- ERG A-wave amplitude, percent of the baseline, Mean ± SD ([3]; XG-102 ivt 150 μg/eye, Day 23): 23.7 ± 27.2%
- ERG B-wave amplitude, percent of the baseline, Mean ± SD ([3]; XG-102 ivt 150 μg/eye, Day 23): 37.1 ± 54.4%
- reaction at s.c. injection site (db/db mice): nodular fibrosis was observed in the subcutaneous tissue
